# Results taken from US6737441B2, “Treatment of helicobacter with isothiocyanates” (priority 2000, dated 2004).
# Like-named read-outs stand apart in the source and are kept apart here.
# Columns and labels:
# [1] = system: amoxicillin/clarithromycin/metronidazole - susceptible strains of Helicobacter pylori; assay: Bacteriostatic activity (MIC) against susceptible strains; type: cell-based; conditions: for MIC: Helicobacter pylori, read-out: MIC
# Helicobacter pylori [2] = assay: microbe, parasite or virus in culture
# [3] = system: clarithromycin and/or metronidazole - intermediate or resistant strains of Helicobacter pylori; assay: Bacteriostatic activity (MIC) against intermediate or resistant strains; type: cell-based; conditions: Helicobacter pylori, read-out: MIC
# Helicobacter pylori [4] = system: Helicobacter pylori
smiles,measurement,setting,value
"C[S+]([O-])CCCCN=C=S (stereo not drawn) [Sulforaphane, 4-methylsulfinylbutyl isothiocyanate]",MIC,[1]; H. pylori strain no 1,2 µg/mL
same,MIC,[1]; H. pylori strain no 2,4 µg/mL
same,MIC,[1]; H. pylori strain no 3,2 µg/mL
same,MIC,[1]; H. pylori strain no 4,4 µg/mL
same,MIC,[1]; H. pylori strain no 5,4 µg/mL
same,MIC,[1]; H. pylori strain no 6,0.06 µg/mL
same,MIC,[1]; H. pylori strain no 7,0.06 µg/mL
same,MIC,[1]; H. pylori strain no 8,0.5 µg/mL
same,MIC,[1]; H. pylori strain no 9,2 µg/mL
same,MIC,[1]; H. pylori strain no 10,0.06 µg/mL
same,MIC,[1]; H. pylori strain no 11,2 µg/mL
same,MIC,[1]; H. pylori strain no 12,4 µg/mL
same,MIC,[1]; H. pylori strain no 13,4 µg/mL
same,MIC,[1]; H. pylori strain no 14,0.06 µg/mL
same,MIC,[1]; H. pylori strain no 15,0.06 µg/mL
same,MIC,[1]; H. pylori strain no 16,1 µg/mL
same,MIC,[1]; H. pylori strain no 17,0.5 µg/mL
same,MIC,[1]; H. pylori strain no 18,0.5 µg/mL
same,MIC,[1]; H. pylori strain no 19,2 µg/mL
same,MIC,[1]; H. pylori strain no 20,0.5 µg/mL
same,MIC,[1]; H. pylori strain no 21,0.5 µg/mL
same,MIC,[1]; H. pylori strain no 22,0.06 µg/mL
same,MIC,[1]; H. pylori strain no 23,0.06 µg/mL
same,MIC,[1]; H. pylori strain no 24,1 µg/mL
same,MIC,[1]; H. pylori strain no 25,0.5 µg/mL
same,MIC,[1]; H. pylori strain no 26,0.5 µg/mL
same,MIC,[1]; H. pylori strain no 27,0.06 µg/mL
same,MIC,[1]; H. pylori strain no 28,0.5 µg/mL
same,MIC,[1]; H. pylori strain no 29,2 µg/mL
same,MIC,[1]; H. pylori strain no 30,0.06 µg/mL
same,MIC,[1]; H. pylori strain no 31,4 µg/mL
same,MIC,[1]; H. pylori strain no 32,2 µg/mL
same,inhibiting the growth of H. pylori compared to traditional antibiotics,"[1]; versus amoxycillin, clarithromycin and metronidazole, several strains (Tables 1 and 2)","as effective, if not more effective"
same,MIC,Helicobacter pylori [2]; strain HP 1,2 µg/mL
same,MIC,Helicobacter pylori [2]; strain HP 2,2 µg/mL
same,MIC,Helicobacter pylori [2]; strain HP 3,4 µg/mL
same,MIC,Helicobacter pylori [2]; strain HP 4,0.06 µg/mL
same,MIC,[3]; H. pylori strain no 33,4 µg/mL
same,MIC,[3]; H. pylori strain no 34,0.5 µg/mL
same,MIC,[3]; H. pylori strain no 35,4 µg/mL
same,MIC,[3]; H. pylori strain no 36,4 µg/mL
same,MIC,[3]; H. pylori strain no 37,0.5 µg/mL
same,MIC,[3]; H. pylori strain no 38,2 µg/mL
same,MIC,[3]; H. pylori strain no 39,0.5 µg/mL
same,MIC,[3]; H. pylori strain no 40,4 µg/mL
same,MIC,[3]; H. pylori strain no 41,0.125 µg/mL
same,MIC,[3]; H. pylori strain no 42,4 µg/mL
same,MIC,[3]; H. pylori strain no 43,8 µg/mL
same,MIC,[3]; H. pylori strain no 44,0.5 µg/mL
same,MIC,[3]; H. pylori strain no 45,1 µg/mL
same,MIC,[3]; H. pylori strain no 46,2 µg/mL
same,MIC,[3]; H. pylori strain no 47,4 µg/mL
same,Time (h) at which 99.9% intracellular killing was observed,"Helicobacter pylori [4]; HP 1, 1 × MIC, tested in triplicate",8 h
same,Time (h) at which 99.9% intracellular killing was observed,"Helicobacter pylori [4]; HP 1, 5 × MIC, tested in triplicate",8 h
same,Time (h) at which 99.9% intracellular killing was observed,"Helicobacter pylori [4]; HP 1, 10 × MIC, tested in triplicate",8 h
same,Time (h) at which 99.9% intracellular killing was observed,"Helicobacter pylori [4]; HP 1, 20 × MIC, tested in triplicate",8 h
same,Actual reductions (log10CFU),"Helicobacter pylori [4]; HP 2, 2 h, 1x MIC",0 log10CFU
same,Actual reductions (log10CFU),"Helicobacter pylori [4]; HP 2, 2 h, 5x MIC",0 log10CFU
same,Actual reductions (log10CFU),"Helicobacter pylori [4]; HP 2, 2 h, 10x MIC",0 log10CFU
same,Actual reductions (log10CFU),"Helicobacter pylori [4]; HP 2, 2 h, 20x MIC",−0.12 log10CFU
same,Actual reductions (log10CFU),"Helicobacter pylori [4]; HP 2, 4 h, 1x MIC",−0.79 log10CFU
same,Actual reductions (log10CFU),"Helicobacter pylori [4]; HP 2, 4 h, 5x MIC",−0.90 log10CFU
same,Actual reductions (log10CFU),"Helicobacter pylori [4]; HP 2, 4 h, 10x MIC",−1.17 log10CFU
same,Actual reductions (log10CFU),"Helicobacter pylori [4]; HP 2, 4 h, 20x MIC",−1.30 log10CFU
same,Actual reductions (log10CFU),"Helicobacter pylori [4]; HP 2, 8 h, 1x MIC",−0.90 log10CFU
same,Actual reductions (log10CFU),"Helicobacter pylori [4]; HP 2, 8 h, 5x MIC",−0.90 log10CFU
same,Actual reductions (log10CFU),"Helicobacter pylori [4]; HP 2, 8 h, 10x MIC",−1.30 log10CFU
same,Actual reductions (log10CFU),"Helicobacter pylori [4]; HP 2, 8 h, 20x MIC",−1.40 log10CFU
same,Actual reductions (log10CFU),"Helicobacter pylori [4]; HP 2, 24 h, 1x MIC",−1.18 log10CFU
same,Actual reductions (log10CFU),"Helicobacter pylori [4]; HP 2, 24 h, 5x MIC",−1.20 log10CFU
same,Actual reductions (log10CFU),"Helicobacter pylori [4]; HP 2, 24 h, 10x MIC",−1.34 log10CFU
same,Actual reductions (log10CFU),"Helicobacter pylori [4]; HP 2, 24 h, 20x MIC",−1.40 log10CFU
same,Actual reductions (log10CFU),"Helicobacter pylori [4]; HP 2, 48 h, 1x MIC",−1.20 log10CFU
same,Actual reductions (log10CFU),"Helicobacter pylori [4]; HP 2, 48 h, 5x MIC",−1.20 log10CFU
same,Actual reductions (log10CFU),"Helicobacter pylori [4]; HP 2, 48 h, 10x MIC",−1.40 log10CFU
same,Actual reductions (log10CFU),"Helicobacter pylori [4]; HP 2, 48 h, 20x MIC",−1.40 log10CFU
same,Time (h) at which 99.9% intracellular killing was observed,"Helicobacter pylori [4]; HP 3, 1 × MIC, tested in triplicate",4 h
same,Time (h) at which 99.9% intracellular killing was observed,"Helicobacter pylori [4]; HP 3, 5 × MIC, tested in triplicate",4 h
same,Time (h) at which 99.9% intracellular killing was observed,"Helicobacter pylori [4]; HP 3, 10 × MIC, tested in triplicate",4 h
same,Time (h) at which 99.9% intracellular killing was observed,"Helicobacter pylori [4]; HP 3, 20 × MIC, tested in triplicate",2 h
same,Time (h) at which 99.9% intracellular killing was observed,"Helicobacter pylori [4]; HP 4, 1 × MIC, tested in duplicate, not definitive",8 h
same,Time (h) at which 99.9% intracellular killing was observed,"Helicobacter pylori [4]; HP 4, 5 × MIC, tested in duplicate, not definitive",8 h
same,Time (h) at which 99.9% intracellular killing was observed,"Helicobacter pylori [4]; HP 4, 10 × MIC, tested in duplicate, not definitive",8 h
same,Time (h) at which 99.9% intracellular killing was observed,"Helicobacter pylori [4]; HP 4, 20 × MIC, tested in duplicate, not definitive",4 h
